Values after ≈ are worked out from the molar mass of the structure shown. Values joined by “and” are separate entries in the source; they are usually repeats but may differ in a detail not shown here. Equal entries are not always repeated. Where two headings read alike, the source gives them in different places.
Legend:
[1] = Hemolytic activity against human erythrocytes (HC50 / MHC, microtiter dilution); assay type: cell-based; conditions: 1% human erythrocytes, pH 7.4, read-out: Hemolytic activity HC50
Description: (§1) Hemoglobin release was determined spectrophotometrically at 570 nm. The hemolytic activity was determined as the peptide concentration that caused 50% hemolysis of erythrocytes after 18 h (HC50). […] HC50 was determined by a plot of peptide concentration versus percent lysis.

human erythrocytes [2] = test: as above; assay type: cell-based
Description: as §1

Acinetobacter baumannii = assay type: cell-based
Summary of the method: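 Microtiter broth dilution in triplicate, mainly LB no-salt medium (MH or BHI in some cases), peptides serially diluted, final inoculum 5×10^5 CFU/ml (1×10^5 CFU/ml in MH variant); 24 h at 37° C. MIC is the lowest peptide concentration inhibiting growth, given in micromolar against clinical isolates.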

[3] = system: Methicillin Resistant Staphylococcus aureus (MRSA) and Staphylococcus aureus; assay type: cell-based; conditions: Mueller Hinton medium; for MIC: 24 hours at 37° C.
Summary of the method: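 MICs by microtiter broth dilution in triplicate determinations, mostly LB no-salt medium (sometimes MH or BHI), final inoculum 5×10^5 CFU/ml (1×10^5 CFU/ml in the MH variant), 24 h at 37 °C. MIC is the lowest peptide concentration inhibiting growth; tested on 20 clinical MRSA and S. aureus isolates.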

[4] = RP-HPLC retention as measure of overall peptide hydrophobicity; assay type: physicochemical; conditions: pH 2, room temperature
Description: Crude and purified peptides were analyzed on an Agilent 1100 series liquid chromatograph (Little Falls, Del.). Runs were performed on a Zorbax 300 SB-C8 column (150×2.1 mm I.D.; 5 μm particle size, 300 Å pore size) from Agilent Technologies using linear AB gradient (1% acetonitrile/min) and a flow rate of 0.25 ml/min, where eluant A was 0.2% aqueous TFA, pH 2 and eluant B was 0.2% TFA in acetonitrile.

Pseudomonas aeruginosa = conditions: for MIC PAO 1: 37° C., 24 h, strain PAO1; for MIC GM (geometric mean of the MIC values): six P. aeruginosa strains; for MIC CP 204: strain CP204; for MIC M 2: strain M2; for MIC PA 14: strain PA14; for MIC PAK: strain PAK; for MIC WR 5: strain WR5
human erythrocytes [5] = test: Hemolytic activity against human erythrocytes (HC50 / MHC, microtiter dilution); assay type: cell-based; conditions: V681 analog studies
[6] = human erythrocytes, concentration of peptide that results in 50% hemolysis after 18 hours at 37° C.
[7] = human red blood cells, 50% hemolysis after 18 h

`CC[C@@H](C)[C@@H](NC(=O)[C@@H](C)NC(=O)[C@@H](CCCCN)NC(=O)[C@@H](CC(C)C)NC(=O)[C@@H](C)NC(=O)[C@H](NC(=O)[C@@H](Cc1c[nH]cn1)NC(=O)[C@@H](CC(C)C)NC(=O)[C@H](NC(=O)[C@H](NC(=O)[C@@H](CCCCN)NC(=O)[C@@H](CCCCN)NC(=O)[C@@H](C)NC(=O)[C@@H](CO)NC(=O)[C@@H](CCCCN)NC(=O)[C@@H](Cc1ccccc1)NC(=O)[C@H](NC(=O)[C@@H](CCCCN)NC(=O)[C@@H](CC(C)C)NC(=O)[C@@H](Cc1ccccc1)NC(=O)[C@@H](CO)NC(=O)[C@@H](CCCCN)NC(=O)[C@@H](Cc1c[nH]c2ccccc12)NC(=O)[C@@H](CCCCN)NC(C)=O)[C@H](C)O)[C@H](C)O)C(C)C)[C@H](C)O)C(=O)N[C@H](CO)C(=O)N[C@H](CO)C(N)=O` [Peptide D1, Ac-KWKSFLKTFKSAKKTVLHTALKAISS-amide] showed an HC50 at 18 h [1, 6] of 141 µM, an HC50 at 18 h [1, 7] of 422 µg/mL and a Hemolytic activity HC50 (human erythrocytes [2]; 50% hemolysis after 18 hours at 37° C.) of 141 µM. The “Hemolytic activity HC50” value (human erythrocytes [2]; [6]) was 140.9 µM, the “Hemolytic activity HC50” value (human erythrocytes [2]; [7]) was 421.5 µg/mL and the “Hemolytic activity HC50” value (human erythrocytes [2]; human red blood cells, 18 h) was 140.9 µM. It also gave an MIC (Acinetobacter baumannii; A. baumannii strain 1 ATCC 17978, Mueller Hinton medium, 24 hours at 37° C.) of 0.8 µM (≈ 2.39 µg/mL), an MIC (Acinetobacter baumannii; A. baumannii strain 2 ATCC 19606, Mueller Hinton medium, 24 hours at 37° C.) of 1.5 µM (≈ 4.49 µg/mL) and an MIC (Acinetobacter baumannii; A. baumannii strain 3, 649 Blood, Mueller Hinton medium, 24 hours at 37° C.) of 0.8 µM (≈ 2.39 µg/mL). It also gave an MIC (Acinetobacter baumannii; A. baumannii strain 4, 689 Groin, Mueller Hinton medium, 24 hours at 37° C.) of 0.8 µM (≈ 2.39 µg/mL), an MIC (Acinetobacter baumannii; A. baumannii strain 5, 759 Gluteus, Mueller Hinton medium, 24 hours at 37° C.) of 1.5 µM (≈ 4.49 µg/mL) and an MIC (Acinetobacter baumannii; A. baumannii strain 6, 821 Urine, Mueller Hinton medium, 24 hours at 37° C.) of 1.5 µM (≈ 4.49 µg/mL). The MIC (Acinetobacter baumannii; A. baumannii strain 7, 884 Axilla, Mueller Hinton medium, 24 hours at 37° C.) was 1.5 µM (≈ 4.49 µg/mL), the MIC (Acinetobacter baumannii; A. baumannii strain 8, 899 Perineum, Mueller Hinton medium, 24 hours at 37° C.) was 1.5 µM (≈ 4.49 µg/mL) and the MIC (Acinetobacter baumannii; A. baumannii strain 9, 964 Throat, Mueller Hinton medium, 24 hours at 37° C.) was 1.5 µM (≈ 4.49 µg/mL). The MIC (Acinetobacter baumannii; A. baumannii strain 10, 985 Pleural fluid, Mueller Hinton medium, 24 hours at 37° C.) was 0.8 µM (≈ 2.39 µg/mL), the MIC (Acinetobacter baumannii; A. baumannii strain 11, 1012 Sputum, Mueller Hinton medium, 24 hours at 37° C.) was 0.8 µM (≈ 2.39 µg/mL) and the “Antimicrobial Activity MIC against A. baumannii” value (Acinetobacter baumannii; geometric mean (GM-MIC), 11 clinical isolates) was 1.1 µM. For the same compound, the “MIC GM (geometric mean)” value (Acinetobacter baumannii; geometric mean of the MIC values from 11 different isolates of Acinetobacter baumannii, Mueller Hinton medium) was 1.1 µM (≈ 3.29 µg/mL), the Acinetobacter baumannii MICGM (Acinetobacter baumannii; geometric mean, 11 different isolates, 24 hours at 37° C.) was 1.1 µM and the MIC ([3]; S. aureus strain 1) was 23.9 µM (≈ 71.5 µg/mL). For the same compound, the MIC ([3]; S. aureus strain 2, R (MRSA resistant to Oxacillin)) was 12.0 µM (≈ 35.9 µg/mL), the MIC ([3]; S. aureus strain 3) was 23.9 µM (≈ 71.5 µg/mL) and the MIC ([3]; S. aureus strain 4, R (MRSA resistant to Oxacillin)) was 23.9 µM (≈ 71.5 µg/mL). For the same compound, the MIC ([3]; S. aureus strain 5) was 23.9 µM (≈ 71.5 µg/mL), the MIC ([3]; S. aureus strain 6) was 23.9 µM (≈ 71.5 µg/mL) and the MIC ([3]; S. aureus strain 7, R (MRSA resistant to Oxacillin)) was 3.0 µM (≈ 8.97 µg/mL). The MIC ([3]; S. aureus strain 8) was 95.5 µM (≈ 286 µg/mL), the MIC ([3]; S. aureus strain 9, R (MRSA resistant to Oxacillin)) was 12.0 µM (≈ 35.9 µg/mL) and the MIC ([3]; S. aureus strain 10) was 12.0 µM (≈ 35.9 µg/mL). The MIC ([3]; S. aureus strain 11, R (MRSA resistant to Oxacillin)) was 12.0 µM (≈ 35.9 µg/mL), the MIC ([3]; S. aureus strain 12, R (MRSA resistant to Oxacillin)) was 6.0 µM (≈ 17.9 µg/mL) and the MIC ([3]; S. aureus strain 13) was 1.5 µM (≈ 4.49 µg/mL). For the same compound, the MIC ([3]; S. aureus strain 14, R (MRSA resistant to Oxacillin)) was 6.0 µM (≈ 17.9 µg/mL), the MIC ([3]; S. aureus strain 15) was 47.7 µM (≈ 143 µg/mL) and the MIC ([3]; S. aureus strain 16, R (MRSA resistant to Oxacillin)) was 23.9 µM (≈ 71.5 µg/mL). The MIC ([3]; S. aureus strain 17) was 23.9 µM (≈ 71.5 µg/mL), the MIC ([3]; S. aureus strain 18) was 23.9 µM (≈ 71.5 µg/mL) and the MIC ([3]; S. aureus strain 19) was 47.7 µM (≈ 143 µg/mL). The MIC ([3]; S. aureus strain 20) was 12.0 µM (≈ 35.9 µg/mL), the “MIC GM (geometric mean)” value ([3]; geometric mean of the MIC values from 20 different isolates of MRSA/SA) was 15.7 µM (≈ 47 µg/mL) and the “Hydrophobicity (retention time in RP-HPLC)” value [4] was 76.8 min and 76.75 min. For the same compound, the “MIC PAO 1” value (Pseudomonas aeruginosa; Brain Heart Infusion medium) was 31.3 µg/mL (≈ 10.5 µM), the “MIC GM (geometric mean of the MIC values)” value (Pseudomonas aeruginosa; Brain Heart Infusion medium) was 31.2 µg/mL and the “MIC CP 204” value (Pseudomonas aeruginosa; Brain Heart Infusion medium) was 62.5 µg/mL (≈ 20.9 µM). For the same compound, the “MIC M 2” value (Pseudomonas aeruginosa; Brain Heart Infusion medium) was 62.5 µg/mL (≈ 20.9 µM), the “MIC PA 14” value (Pseudomonas aeruginosa; Brain Heart Infusion medium) was 15.6 µg/mL (≈ 5.22 µM) and the “MIC PAK” value (Pseudomonas aeruginosa; Brain Heart Infusion medium) was 31.3 µg/mL (≈ 10.5 µM). The “MIC WR 5” value (Pseudomonas aeruginosa; Brain Heart Infusion medium) was 15.6 µg/mL (≈ 5.22 µM), the “MIC PAO 1” value (Pseudomonas aeruginosa; Mueller Hinton medium) was 7.8 µg/mL (≈ 2.61 µM) and the “MIC GM (geometric mean of the MIC values)” value (Pseudomonas aeruginosa; Mueller Hinton medium) was 12.4 µg/mL. For the same compound, the “MIC CP 204” value (Pseudomonas aeruginosa; Mueller Hinton medium) was 15.6 µg/mL (≈ 5.22 µM), the “MIC M 2” value (Pseudomonas aeruginosa; Mueller Hinton medium) was 7.8 µg/mL (≈ 2.61 µM) and the “MIC PA 14” value (Pseudomonas aeruginosa; Mueller Hinton medium) was 15.6 µg/mL (≈ 5.22 µM). For the same compound, the “MIC PAK” value (Pseudomonas aeruginosa; Mueller Hinton medium) was 15.6 µg/mL (≈ 5.22 µM), the “MIC WR 5” value (Pseudomonas aeruginosa; Mueller Hinton medium) was 15.6 µg/mL (≈ 5.22 µM) and the Pseudomonas aeruginosa MICGM (Pseudomonas aeruginosa; geometric mean, 6 different isolates, 24 hours at 37° C.) was 4.1 µM. For the same compound, the “Hemolytic activity, minimal hemolytic concentration (MHC)” value (human erythrocytes [5]) was “non-hemolytic”.

Reference: patent US9352015B2, “Antimicrobial peptides” (priority 2009, dated 2016)
